Assay results taken from patent publication US11021444B2, “Antiviral compounds” (priority 2013, dated 2021).
Read-outs that look alike come from different tables or passages of the source.

What was measured:
[1] = Cytotoxicity Determination (CCK-8, without addition of virus); type: cell-based; conditions: human, 50% cytotoxicity concentration (CC50)
Procedure, shortened: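 HEp-2 cells were seeded at 1,500 cells/well one day before compound addition. Compounds were tested without virus in duplicate over 7 points from 100 μM in 1/2 steps, with 1% final DMSO, 5 days at 37 °C, 5% CO2. Viability was read by CCK-8 after 3-4 hours.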

recombinant RSV complex = recombinant RSV complex (Human respiratory syncytial virus A, UniProt P28887); assay: RSV Polymerase Inhibition Assay; type: biochemical
Procedure, shortened: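 10 nM recombinant RSV polymerase complex in Tris-HCl pH 7.5, 6 mM MgCl2 with RNA oligonucleotide template and radionucleotides, incubated 2 h at 30 °C with increasing inhibitor concentrations. Reaction stopped with EDTA; radiolabeled RNA product counted by scintillation.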

RSV replicon = assay: microbe, parasite or virus in culture; type: cell-based; conditions: human respiratory syncytial virus, read-out: EC50, the concentration of the drug required for reducing RSV replicon RNA by 50%
Method: The Renilla Luciferase Assay System (Promega, Cat. #E2820) was used to measure anti-RSV replicon activity. […] Luminescence was recorded using a Perkin Elmer multilabel counter Victor3V. EC50, the concentration of the drug required for reducing RSV replicon RNA by 50% in relation to the untreated cell control value, was calculated from the plot of percentage reductions of the optical density (OD) value against the drug concentrations using the Microsoft Excel forecast function.

[2] = system: Respiratory Syncytial Virus (RSV) long strain; assay: microbe, parasite or virus in culture; type: cell-based; conditions: human respiratory syncytial virus, Tables A and B list compounds by EC50 band
Procedure, shortened: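 HEp-2 cells infected with 100 TCID50 virus per well, compounds in duplicate, 9-point 1/3 dilutions from 100 μM or 1 μM, 1% DMSO. After 5 days at 37 °C, cell viability (CPE protection) read by CCK-8 absorbance at 450 nm, 630 nm background.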

[3] = 120 h, read-out: 50% effective concentration (EC50), HEp-2 cells infected with RSV long strain, 5 days, CCK-8 readout
[4] = HEp-2, 120 h, read-out: 50% effective concentration (EC50), HEp-2 cells infected with RSV long strain, 5 days, CCK-8 readout

recombinant RSV complex, sequence (P28887 whole entry): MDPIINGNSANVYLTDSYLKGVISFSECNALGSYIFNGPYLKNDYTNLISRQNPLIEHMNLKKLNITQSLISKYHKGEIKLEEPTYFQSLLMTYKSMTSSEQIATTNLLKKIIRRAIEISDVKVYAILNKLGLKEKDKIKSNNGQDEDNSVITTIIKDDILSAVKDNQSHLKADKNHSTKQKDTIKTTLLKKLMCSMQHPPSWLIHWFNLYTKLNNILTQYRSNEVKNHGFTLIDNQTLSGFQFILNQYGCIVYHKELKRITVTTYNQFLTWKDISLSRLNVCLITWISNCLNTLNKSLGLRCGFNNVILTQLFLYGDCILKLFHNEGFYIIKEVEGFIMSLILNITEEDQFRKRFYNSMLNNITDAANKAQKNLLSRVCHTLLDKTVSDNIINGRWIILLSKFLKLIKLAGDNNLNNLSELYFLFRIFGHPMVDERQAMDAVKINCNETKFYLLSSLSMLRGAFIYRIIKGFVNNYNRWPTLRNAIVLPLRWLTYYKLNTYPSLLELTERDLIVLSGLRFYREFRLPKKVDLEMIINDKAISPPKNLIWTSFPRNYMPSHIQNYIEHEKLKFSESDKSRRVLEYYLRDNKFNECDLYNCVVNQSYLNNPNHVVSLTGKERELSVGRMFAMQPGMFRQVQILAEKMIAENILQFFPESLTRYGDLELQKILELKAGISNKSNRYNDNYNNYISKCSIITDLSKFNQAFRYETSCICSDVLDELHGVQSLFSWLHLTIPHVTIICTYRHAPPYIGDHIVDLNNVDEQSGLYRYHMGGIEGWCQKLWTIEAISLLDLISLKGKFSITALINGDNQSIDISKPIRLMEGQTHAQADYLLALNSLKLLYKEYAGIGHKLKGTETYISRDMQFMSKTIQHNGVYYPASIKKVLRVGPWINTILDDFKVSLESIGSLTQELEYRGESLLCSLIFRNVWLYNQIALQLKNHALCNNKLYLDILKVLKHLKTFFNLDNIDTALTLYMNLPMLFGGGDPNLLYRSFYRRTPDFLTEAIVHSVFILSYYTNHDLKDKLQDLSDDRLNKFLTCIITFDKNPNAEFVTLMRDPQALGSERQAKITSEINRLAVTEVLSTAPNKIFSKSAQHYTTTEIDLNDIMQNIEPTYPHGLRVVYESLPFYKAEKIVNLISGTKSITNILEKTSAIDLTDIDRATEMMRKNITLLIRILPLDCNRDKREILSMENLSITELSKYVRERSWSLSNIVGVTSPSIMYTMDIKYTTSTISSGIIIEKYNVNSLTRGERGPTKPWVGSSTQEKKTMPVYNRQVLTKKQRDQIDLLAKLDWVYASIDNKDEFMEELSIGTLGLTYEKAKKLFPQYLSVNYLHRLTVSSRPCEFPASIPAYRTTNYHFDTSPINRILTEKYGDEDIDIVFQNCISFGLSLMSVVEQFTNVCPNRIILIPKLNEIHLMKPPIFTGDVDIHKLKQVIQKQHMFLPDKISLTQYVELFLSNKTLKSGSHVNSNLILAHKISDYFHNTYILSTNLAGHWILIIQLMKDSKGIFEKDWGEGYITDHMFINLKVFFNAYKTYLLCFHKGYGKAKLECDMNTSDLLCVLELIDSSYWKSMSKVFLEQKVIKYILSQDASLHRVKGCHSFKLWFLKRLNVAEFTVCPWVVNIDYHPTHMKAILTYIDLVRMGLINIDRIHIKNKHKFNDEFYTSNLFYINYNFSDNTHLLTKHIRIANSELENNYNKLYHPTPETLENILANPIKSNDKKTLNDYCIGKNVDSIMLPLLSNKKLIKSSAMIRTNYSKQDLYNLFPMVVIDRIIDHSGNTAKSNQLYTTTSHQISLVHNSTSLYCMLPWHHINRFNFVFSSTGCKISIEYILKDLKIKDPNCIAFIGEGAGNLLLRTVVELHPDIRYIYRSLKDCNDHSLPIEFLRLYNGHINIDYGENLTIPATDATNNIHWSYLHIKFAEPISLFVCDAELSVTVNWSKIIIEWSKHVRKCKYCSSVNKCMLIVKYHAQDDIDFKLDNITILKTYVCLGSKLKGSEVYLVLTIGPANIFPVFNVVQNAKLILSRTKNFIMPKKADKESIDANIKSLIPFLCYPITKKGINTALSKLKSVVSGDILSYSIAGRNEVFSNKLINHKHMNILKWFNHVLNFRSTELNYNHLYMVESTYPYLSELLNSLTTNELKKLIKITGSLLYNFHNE
recombinant RSV complex, sequence (P03421 whole entry, further chain): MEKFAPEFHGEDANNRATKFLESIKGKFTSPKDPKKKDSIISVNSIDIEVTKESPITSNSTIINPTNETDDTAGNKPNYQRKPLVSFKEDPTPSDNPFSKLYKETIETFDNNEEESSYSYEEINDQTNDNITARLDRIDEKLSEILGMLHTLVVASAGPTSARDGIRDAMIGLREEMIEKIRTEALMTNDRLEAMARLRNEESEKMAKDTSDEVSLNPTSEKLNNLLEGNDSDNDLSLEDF

Row | SMILES | CC50 at 5 days [1] | IC50 (recombinant RSV complex) | EC50 (RSV replicon) | EC50 [2, 3] | EC50 [2, 4]
1 | COc1cc(C(=O)NC[C@@](O)(c2cc3c(c(-c4ccc(F)cc4)n2)OC[C@@]3(C)N)C(F)(F)F)ccc1OC[C@@H](C)O [Compound 630] | 10000 to 100000 nM | < 1000 nM | < 1000 nM | < 1000 nM | 
2 | CC#CC(O)(CNC(=O)c1ccc(OCCF)c(OC)c1)c1ccc(OC)c(-c2ccc(F)c(Cl)c2)n1 (stereo not shown) [Compound 124] | 10000 to 100000 nM | < 10000 nM | < 1000 nM |  | < 1000 nM
3 | COc1cc(C(=O)NCC(O)(c2cc(C(C)(C)N)cc(-c3ccc(F)c(Cl)c3)n2)C(F)(F)F)ccc1OCC(C)(C)O (stereo not shown) [Compound 396] | 10000 to 100000 nM | < 1000 nM | < 1000 nM |  | < 1000 nM
4 | COc1cc(C(=O)NCC(O)(c2ccc(OC)c(-c3ccc(F)c(Cl)c3)n2)C(F)(F)F)ccc1OC1(CF)CC1 (stereo not shown) [Compound 248] | > 100000 nM | < 1000 nM | < 1000 nM |  | < 1000 nM
5 | COc1cc(C(=O)NCC(O)(c2ccc(OC)c(-c3ccc(F)c(Cl)c3)n2)C(C)O)ccc1OC1CC1 (stereo not shown) [Compound 454] | 10000 to 100000 nM | < 1000 nM | < 1000 nM |  | < 1000 nM
6 | COc1cc(C(=O)NCC(O)(c2cc(CN)cc(-c3ccc(F)c(Cl)c3)n2)C(F)(F)F)ccc1OC1CC1 (stereo not shown) [Compound 327] | 10000 to 100000 nM | < 1000 nM | < 1000 nM |  | < 1000 nM
7 | COc1cc(C(=O)NCC(O)(c2ccc(OC)c(-c3ccc(F)c(Cl)c3)n2)C2CC2)ccc1OCCF (stereo not shown) [Compound 123] | > 100000 nM | < 1000 nM | < 1000 nM |  | < 1000 nM
8 | COc1cc(C(=O)NCC(O)(c2cc(C3(N)COC3)cc(-c3ccc(F)cc3)n2)C(F)(F)F)ccc1OC1CC1 (stereo not shown) [Compound 595] | 10000 to 100000 nM | < 1000 nM | < 1000 nM |  | < 1000 nM
9 | COc1cc(C(=O)NCC(C)(F)c2ccc(OC)c(-c3ccc(F)c(Cl)c3)n2)ccc1OCCO (stereo not shown) [Compound 365] | 10000 to 100000 nM | < 1000 nM | < 1000 nM |  | < 1000 nM
10 | COc1cc(C(=O)NCC(C)(O)c2ccc(OC)c(-c3ccc(F)c(Br)c3)n2)ccc1OCC(N)=O (stereo not shown) [Compound 403] | > 100000 nM | < 1000 nM | < 1000 nM |  | < 1000 nM
11 | COc1cc(C(=O)NCC(O)(c2cc(C(C)(C)N)cc(-c3ccc(F)c(Cl)c3)n2)C(F)(F)F)ccc1OCCOC(=O)C(C)C (stereo not shown) [Compound 490] | 10000 to 100000 nM | < 10000 nM | < 1000 nM |  | < 1000 nM
12 | COc1cc(C(=O)NCC(O)(CO)c2ccc(OC)c(-c3ccc(F)c(Cl)c3)n2)ccc1OCCO (stereo not shown) [Compound 176] | > 100000 nM | < 1000 nM | < 1000 nM |  | < 1000 nM
13 | COc1cc(C(=O)NCC(O)(c2cc(C(C)(C)NCC(=O)O)cc(-c3ccc(F)c(Cl)c3)n2)C(F)(F)F)ccc1OC1CC1 (stereo not shown) [Compound 515] | 10000 to 100000 nM | < 1000 nM | < 1000 nM |  | < 1000 nM
14 | COc1cc(C(=O)NC[C@](O)(c2cc(C(C)(C)N)cc(-c3ccc(F)cc3)n2)C(F)(F)F)ccc1OC[C@@H](C)O [Compound 546] | 10000 to 100000 nM | < 1000 nM | < 1000 nM |  | < 1000 nM
15 | COc1cc(C(=O)NCC(O)(c2cc3c(c(-c4ccc(F)c(Cl)c4)n2)NCC3(C)C)C(F)(F)F)ccc1OC1CC1 (stereo not shown) [Compound 335] | > 100000 nM | < 1000 nM | < 1000 nM |  | < 1000 nM
16 | COc1cc(C(=O)NCC(=O)c2cc3c(c(-c4ccc(F)c(Cl)c4)n2)OCC3(C)C)ccc1OCCO [Compound 140] | 10000 to 100000 nM | < 1000 nM | < 1000 nM | < 1000 nM | 

Row | SMILES | CC50 at 5 days [1] | IC50 (recombinant RSV complex) | EC50 (RSV replicon) | EC50 [2, 3] | EC50 [2, 4]
17 | COc1cc(C(=O)NCC(O)(c2ccc(OC)c(-c3ccc(F)c(Cl)c3)n2)C(F)(F)F)ccc1OC1CCNC1=O (stereo not shown) [Compound 349] | 10000 to 100000 nM | < 1000 nM | < 1000 nM |  | < 1000 nM
18 | C=CC(O)(CNC(=O)c1ccc(OCCF)c(OC)c1)c1ccc(OC)c(-c2ccc(F)c(Cl)c2)n1 (stereo not shown) [Compound 126] | 10000 to 100000 nM | < 1000 nM | < 1000 nM |  | < 1000 nM
19 | COc1cc(C(=O)NC[C@@](O)(c2cc(C(C)(C)N)cc(-c3ccc(F)c(Cl)c3)n2)C(F)(F)F)ccc1OCC(N)=O [Compound 547] | 10000 to 100000 nM | < 1000 nM | < 1000 nM |  | < 1000 nM
20 | COc1cc(C(=O)NCC(O)(Cn2cccn2)c2cc3c(c(-c4ccc(F)c(Cl)c4)n2)OCC3(C)C)ccc1OC1CCNC1=O (stereo not shown) [Compound 218] | 10000 to 100000 nM | < 1000 nM | < 1000 nM |  | < 1000 nM
21 | COc1cc(C(=O)NC[C@@](O)(c2cc(C(C)(C)N)cc(-c3ccc(F)c(Cl)c3)n2)C(F)(F)F)ccc1OC[C@@H](C)O [Compound 551] | 10000 to 100000 nM | < 1000 nM | < 1000 nM |  | < 1000 nM
22 | COc1cc(C(=O)NCC(O)(c2cc3c(c(-c4ccc(F)c(Cl)c4)n2)OCC3(C)C)C(F)(F)F)ccc1OCC(C)O (stereo not shown) [Compound 211] | 10000 to 100000 nM | < 1000 nM | < 1000 nM |  | < 1000 nM
23 | COc1cc(C(=O)NCC(F)(CO)c2ccc(OC)c(-c3ccc(F)c(Cl)c3)n2)ccc1OC1CC1 (stereo not shown) [Compound 385] | 10000 to 100000 nM | < 1000 nM | < 1000 nM |  | < 1000 nM
24 | COc1cc(C(=O)NCC(=O)c2cc3c(c(-c4ccc(F)c(Cl)c4)n2)OCC3(C)C)cc2cccnc12 [Compound 220] | > 100000 nM | < 1000 nM | 1000 to 50000 nM | < 1000 nM | 
25 | COc1cc(C(=O)NCC(O)(c2ccc(OC)c(-c3ccc(F)c(Cl)c3)n2)C2CC2)ccc1OCC(N)=O (single isomer, unassigned) [Compound 431] | 10000 to 100000 nM | < 1000 nM | < 1000 nM |  | < 1000 nM
26 | COc1cc(C(=O)NCC(O)(Cn2ccnc2)c2cc3c(c(-c4ccc(F)c(Cl)c4)n2)OCC3(C)C)cc2cccnc12 (stereo not shown) [Compound 226] | 10000 to 100000 nM | < 1000 nM | < 1000 nM |  | < 1000 nM
27 | CNC(C)(C)c1cc(-c2ccc(F)c(Cl)c2)nc(C(O)(CNC(=O)c2ccc(OC[C@@H](C)O)c(OC)c2)C(F)(F)F)c1 (stereo partly shown) [Compound 486] | 10000 to 100000 nM | < 1000 nM | < 1000 nM |  | < 1000 nM
28 | COc1cc(C(=O)NCC(O)(Cn2nccn2)c2ccc(OC)c(-c3ccc(F)c(Cl)c3)n2)ccc1OCCO (stereo not shown) [Compound 193] | 10000 to 100000 nM | < 1000 nM | < 1000 nM |  | < 1000 nM
29 | COc1cc(C(=O)NCC(O)(c2ccc(OC)c(-c3ccc(F)c(Cl)c3)n2)C(F)(F)F)ccc1OC1CC(F)(F)C1 (stereo not shown) [Compound 244] | > 100000 nM | < 1000 nM | < 1000 nM |  | < 1000 nM
30 | COc1cc(C(=O)NCC(O)(c2cc3c(c(-c4ccc(F)c(Cl)c4)n2)OCC3(C)C)C2CC2)cc2cccnc12 (stereo not shown) [Compound 224] | 10000 to 100000 nM | < 1000 nM | < 1000 nM |  | < 1000 nM
31 | COc1cc(C(=O)NCC(O)(c2cc(C(C)(C)N)c(OC)c(-c3ccc(F)cc3)n2)C(F)(F)F)ccc1OC1CC1 (stereo not shown) [Compound 594] | 10000 to 100000 nM | < 1000 nM | < 1000 nM |  | < 1000 nM
